In publication PMC3581553, “New Approaches of PARP-1 Inhibitors in Human Lung Cancer Cells and Cancer Stem-Like Cells by Some Selected Anthraquinone-Derived Small Molecules” (PLoS ONE, 2013):
Where two headings read alike, the source gives them in different places. Blank lines part the entries; values can stand above or below the compound they belong to.

Assays:
[1] = test system: HEL299 cells; experiment: MTT cytotoxicity assay, HEL299 normal fibroblasts; type: cell-based; settings: Homo sapiens, HEL 299, 48 h of drug exposure
Protocol: (§1) Non-small cell lung cancer cells A549 and Oct-4- and Nanog-overexpressed A549 clone (clone #3; A3), presented the properties of cancer stem-like cells, as well as epithelial-mesenchymal transdifferentiation, according to our previous study. They were grown in the same conditions as RPMI 1640 media supplemented with 10% fetal bovine serum (FBS), 100 units/mL penicillin, […] streptomycin, 1 mM sodium pyruvate, 2 mM l-glutamine and 1% non-essential amino acid (NEAA) in a humidified atmosphere with 5% CO2 at 37°C. Normal fibroblast cells HEL299 from American Type Culture Collection (ATCC) were grown in MEM media supplemented with 10% FBS, 100 units/mL penicillin, […] streptomycin, 1 mM sodium pyruvate, 2 mM l-glutamine and 1% NEAA, in a humidified atmosphere with 5% CO2 at 37°C.
(§2) The tetrazolium reagent (MTT; 3-(4,5-dimethylthiazol-2-yl)-2,5-diphenyl-tetrazolium bromide, USB) was designed to yield a colored formazan upon metabolic reduction by viable cells, [61]. Approximately 5×10^4 cells were plated onto each well of a 24-well plate and incubated in 5% CO2 at 37°C for 24 hours. To assess the in vitro cytotoxicity, each compound was dissolved in DMSO and prepared immediately before the experiments and then was diluted into the complete medium before being added to cell cultures. Test compounds were then added to the culture medium in various designated concentrations. After 48 hours, an amount of 100 µl of MTT was added to each well, and the samples were incubated at 37°C for 2 h. 100 µl DMSO was added to each well. The absorbency at 560 nm and reference absorbency at 670 nm were measured using an ELISA reader.

[2] = test system: A549 cells; experiment: MTT cytotoxicity assay, A549 cells; type: cell-based; settings: Homo sapiens, 48 h of drug exposure
Protocol: as §1, §2

[3] = test system: NCI-H322M; experiment: NCI-60 drug screen (SRB), NSCLC line NCI-H322M; type: cell-based, human
Protocol: (§3) As a primary screening, seven selected compounds were submitted to the National Cancer Institute (NCI) cell lines screen for evaluation of their anticancer activity. From the data analysis, it follows that approximately 95% of the actives from the 60 cell lines screen can be identified. The detailed methods used for the 60 cell lines panel have been described elsewhere [54]–[59]. Briefly, cellular protein levels were determined after 48 hours of drug exposure by SRB colorimetry. Through the use of a time zero cell control, the cell growth can be determined for each cell line thus allowing calculations of GI50, TGI, and LC50. Comparison to plates not exposed to drug permits determination of concentration and times of exposure conferring GI50, TGI, and LC50. […] By these criteria, seven compounds reported from our compounds bank were all active and passed on for evaluation in the full panel of 60 human tumor cell lines. The panel is organized into nine subpanels representing diverse histology: leukemia, melanoma, and cancers of the lung, colon, kidney, ovary, breast, prostate, and central nervous system.

[4] = test system: HOP-62; experiment: NCI-60 drug screen (SRB), NSCLC line HOP-62; type: cell-based, human
Protocol: as §3

[5] = test system: A549/ATCC; experiment: NCI-60 drug screen (SRB), NSCLC line A549/ATCC; type: cell-based, human
Protocol: as §3

[6] = test system: NCI-H226; experiment: NCI-60 drug screen (SRB), NSCLC line NCI-H226; type: cell-based, human
Protocol: as §3

[7] = molecular target: T1, PARP-1 (Homo sapiens, UniProt P09874); experiment: PARP inhibitory assay (histone-coated plate, colorimetric); type: biochemical
T1 construct: purchased
T1 sequence (P09874 whole entry): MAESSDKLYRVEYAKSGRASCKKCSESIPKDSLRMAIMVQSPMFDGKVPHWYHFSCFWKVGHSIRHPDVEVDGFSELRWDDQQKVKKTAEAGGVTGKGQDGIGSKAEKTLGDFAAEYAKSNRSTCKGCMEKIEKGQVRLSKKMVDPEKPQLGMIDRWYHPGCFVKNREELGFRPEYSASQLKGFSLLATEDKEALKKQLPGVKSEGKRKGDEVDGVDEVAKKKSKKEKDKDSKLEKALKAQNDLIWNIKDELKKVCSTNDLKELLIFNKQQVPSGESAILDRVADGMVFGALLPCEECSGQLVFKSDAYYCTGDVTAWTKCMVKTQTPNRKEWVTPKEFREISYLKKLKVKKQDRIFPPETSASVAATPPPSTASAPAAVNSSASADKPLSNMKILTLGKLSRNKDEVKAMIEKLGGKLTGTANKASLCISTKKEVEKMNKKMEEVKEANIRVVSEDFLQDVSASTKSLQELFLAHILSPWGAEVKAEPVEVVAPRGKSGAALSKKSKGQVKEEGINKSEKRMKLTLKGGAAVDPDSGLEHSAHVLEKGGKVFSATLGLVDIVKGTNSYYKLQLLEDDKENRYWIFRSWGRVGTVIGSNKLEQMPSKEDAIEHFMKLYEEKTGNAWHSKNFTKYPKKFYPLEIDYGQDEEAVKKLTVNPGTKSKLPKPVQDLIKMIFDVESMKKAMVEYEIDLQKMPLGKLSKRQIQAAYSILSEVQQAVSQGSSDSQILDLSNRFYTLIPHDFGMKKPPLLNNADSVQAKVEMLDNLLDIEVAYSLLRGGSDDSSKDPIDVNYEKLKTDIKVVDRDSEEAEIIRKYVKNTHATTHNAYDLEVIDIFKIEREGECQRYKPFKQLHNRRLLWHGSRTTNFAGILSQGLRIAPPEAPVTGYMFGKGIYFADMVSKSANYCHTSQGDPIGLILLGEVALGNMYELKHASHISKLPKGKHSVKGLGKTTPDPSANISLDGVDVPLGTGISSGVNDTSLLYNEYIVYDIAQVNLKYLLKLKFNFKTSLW
Protocol: We used histone-coated 96-well plate treated with seven putative PARP-1 inhibitors or well-known PARP-1 inhibitors (3-AB), and then added PARP enzyme to each well. PARP enzyme catalyzes the NAD-dependent addition of poly (ADP-ribose) to histone, and diluted Strp-HRP could bind to PARylation histone. TACS-Sapphire™ yielded blue under the HRP existence. In order to systematically evaluate the potential anticancer activity, the compounds were tested for their cytotoxicity in vitro against 60 human cancer lines in the NCI anticancer drug screen as well as for dose response curves and telomerase activity. Cell growth was analyzed by the MTT assay, with differences between dose-response curves analyzed non-parametrically. Telomerase activity was detected by a modified version of the PCR-based assay and TRAP assay. […] However, PARP inhibitory effects had no difference at 1 and 10 µM. As described above, NSC746364, NSC746366 and NSC749232 show dose-dependency only at low concentrations. […] NSC747854 had dose-dependent PARP inhibitory manners at three different concentrations, and reached the maximum inhibitory effect of 86% at 10 µM (Table 4). […] In this investigation, we continued to focus our attention on the role of NSC747854 and to understand the basis of pharmacophore selectivity. Of particular note is the significant difference with these selected compounds, compared with that of 3-AB and PJ-34. […] An electron-rich aromatic ring system, including a carboxamide group, should have at least a hydrogen atom on the amide nitrogen. The amidinium moiety is known to contribute to the stabilization of DNA recognition element through electrostatic and hydrogen bonding interactions. Therefore, hydrogen bonds are frequently used as recognition elements due to their directionality and also due to being attractive factors to the biological activity (Figure 1). Many classes of drugs have substantial curvature, high DNA affinity, binding to the minor-groove or major-groove, interference with DNA-associated enzymes (e.g. telomerase), and Poly (ADP-ribose) polymerase, PARP. […] This approach greatly expands the utility of the substituents and related pharmacophore for the construction of drugs in general. Therefore, it is desirable to design PARP inhibitors in accordance with various anticancer parameters. It was first reported that anthraquinone analogues are potent human PARP inhibitors.
Strip wells were removed from the wrapper and 50 µl of 1X PARP Buffer was added to each well to rehydrate the histones. They were incubated at room temperature for 30 minutes. The 1X PARP buffer was removed from the wells by tapping the strip wells on paper towels. The serial dilutions of inhibitor of interest were added to appropriate wells. The diluted PARP enzyme (0.5 unit/well) was then added to the wells containing inhibitor. They were incubated for 10 minutes at room temperature. The PARP Enzyme-High Specific Activity (PARP-HAS) standard was serially diluted in cold micro-tubes with 1X PARP buffer such that the total activity was 1 unit/25 µl, 0.5 units/25 µl, 0.25 units/25 µl, 0.1 units/25 µl, 0.05 units/25 µl, 0.025 units/25 µl, and 0.01 units/25 µl, respectively. The 25 µl of each standard was added to triplicate wells. The 25 µl of 1X PARP cocktail were distributed into each well by using a multichannel pipettor. The final reaction volume is 50 µl. They were incubated along with the strip wells at room temperature for 60 minutes. The strip wells were washed 2 times with 1X PBS +0.1% Triton X-100 (200 µl/well) followed by 2 washes with 1X PBS. All the liquid was removed following each wash by tapping strip wells onto paper towels. The 50 µl diluted Strep-HRP were added per well. They were incubated at room temperature for 60 minutes. The strip wells were washed 2 times with 1X PBS +0.1% Triton X-100 (200 µl/well) followed by 2 washes with 1X PBS. All the liquid was removed following each wash by tapping strip wells onto paper towels. […]

[8] = test system: EKVX; experiment: NCI-60 drug screen (SRB), NSCLC line EKVX; type: cell-based, human
Protocol: as §3

[9] = test system: NCI-H460; experiment: NCI-60 drug screen (SRB), NSCLC line NCI-H460; type: cell-based, human
Protocol: as §3

[10] = test system: Oct-4- and Nanog-overexpressed A549 clone (A3); experiment: MTT cytotoxicity assay, A3 cells; type: cell-based; settings: Homo sapiens, 48 h of drug exposure
Protocol: as §1, §2

[11] = test system: NCI-H23; experiment: NCI-60 drug screen (SRB), NSCLC line NCI-H23; type: cell-based, human
Protocol: as §3

[12] = test system: NCI-H522; experiment: NCI-60 drug screen (SRB), NSCLC line NCI-H522; type: cell-based, human
Protocol: as §3

[13] = Homo sapiens, 48 hours drug exposure, SRB
[14] = Homo sapiens, 48 hours drug exposure, SRB, read-out: GI50
[15] = Homo sapiens, NCI in vitro 60-cell lines Drug Screen, read-out: -Log GI50 (converted)
[16] = Homo sapiens, 48 hours drug exposure, SRB, read-out: LC50 (the source's name)

SMILES: O=C1c2ccccc2C(=O)c2c1ccc1nc(SCCN3CCCC3)[nH]c21 [NSC747515]
- IC50 [1]: 25.9 µM
- IC50 [2]: 11.8 µM
- TGI ([3]; 48 hours drug exposure, SRB): 21.4 µM
- LC50 [3, 13]: 47.3 µM
- GI50 [3, 14]: 8.21 µM
- GI50 [3, 15]: 8.13 µM
- TGI ([4]; 48 hours drug exposure, SRB): 33.2 µM
- GI50 [4, 14]: 18 µM
- CC50 [4, 16]: 61.2 µM
- GI50 [4, 15]: 18.2 µM
- TGI ([5]; 48 hours drug exposure, SRB): 15.0 µM
- LC50 (concentration killing 50% of cells) [5, 13]: 41.8 µM
- GI50 [5, 14]: 3.8 µM
- GI50 [5, 15]: 3.8 µM
- TGI ([6]; 48 hours drug exposure, SRB): 36.6 µM
- GI50 [6, 14]: 19.3 µM
- CC50 [6, 16]: 69.7 µM
- GI50 [6, 15]: 19.5 µM
- inhibition at 0.1 µM [7]: 20%
- inhibition at 1 µM [7]: 22%
- inhibition at 10 µM [7]: 24%
- TGI ([8]; 48 hours drug exposure, SRB): 26.5 µM
- LC50 [8, 13]: 62.4 µM
- GI50 [8, 14]: 11.2 µM
- GI50 [8, 15]: 11.2 µM
- TGI ([9]; 48 hours drug exposure, SRB): 4.77 µM
- LC50 (concentration killing 50% of cells) [9, 13]: 29.3 µM
- GI50 [9, 14]: 1.68 µM
- GI50 [9, 15]: 1.7 µM
- IC50 [10]: 7.05 µM
- TGI ([11]; 48 hours drug exposure, SRB): 25.7 µM
- GI50 [11, 14]: 11.6 µM
- CC50 [11, 16]: 56.9 µM
- GI50 [11, 15]: 11.5 µM
- TGI ([12]; 48 hours drug exposure, SRB): 32.5 µM
- GI50 [12, 14]: 15.9 µM
- CC50 [12, 16]: 66.2 µM
- GI50 [12, 15]: 15.8 µM

- inhibition at 0.1 µM [7]: 4%
- inhibition at 1 µM [7]: 10%
- inhibition at 10 µM [7]: 18%
SMILES: NC(=O)c1cccc(N)c1 [3-AB, 3-Aminobenzamide, reference compound]
- IC50 [1]: 5.98 µM
- IC50 [2]: 13.1 µM
- IC50 [10]: 10.8 µM

SMILES: CN(C)CC(=O)Nc1ccc2[nH]c(=O)c3ccccc3c2c1 [PJ-34, reference compound]
- IC50 [1]: 14.7 µM
- IC50 [2]: 31.7 µM
- IC50 [10]: 9.44 µM
